# Data reported in ChEMBL document CHEMBL3132855, “Synthesis and antiviral evaluation of 4-(1,2,3-triazol-1-yl)thymidines” (Medchemcomm, 2014).
# Active and inactive are the calls of the source. No cut-off for these calls is given here.
# Experiments:
# [1] = test system: Hepatitis C virus; test: Antiviral activity against HCV1b infected in human HuH-7 cells assessed as inhibition of viral replication at 10 uM after 3 days by luciferase assay; assay type: functional, organism-based; conditions: Hepacivirus hominis, genotype 1b
# [2] = test system: West Nile virus; test: Antiviral activity against West Nile virus infected in baby hamster BHK-WII RepRen1B cells assessed as inhibition of viral replication at 10 uM after 3 days by luciferase assay; assay type: functional, organism-based
# [3] = test system: Influenza A virus; test: Antiviral activity against Influenza A/WSN/33 virus infected in human A549 cells assessed as inhibition of virus-induced cytopathic effect at 10 uM after 5 days by neutral red assay; assay type: functional; conditions: A/WSN/1933(H1N1), A549, 120 h
# [4] = Cytotoxicity against human CEM-SS cells assessed as cell viability at 10 uM after 6 days by MTS assay; assay type: cell-based; conditions: read-out: Activity
# [5] = test system: Human immunodeficiency virus 1; test: Antiviral activity against HIV1 3B infected in human CEM-SS cells assessed as inhibition of virus-induced cytopathic effect at 10 uM after 6 days by MTS assay; assay type: functional; conditions: Human immunodeficiency virus 1, 3B, 144 h
# [6] = test system: Influenza A virus; test: Antiviral activity against Influenza A/WSN/33 virus infected in MDCK cells assessed as inhibition of virus-induced cytopathic effect at 10 uM after 5 days by neutral red assay; assay type: functional; conditions: A/WSN/1933(H1N1), 120 h
Compound,inhibition [1],inhibition [2],inhibition at 10 µM [3] [%],"viability at 144 h, 10 µM [4] [%]",inhibition at 10 µM [5] [%],inhibition at 10 µM [6] [%]
Cc1cn([C@H]2C[C@H](O)[C@](CO)(n3cc(COc4ccccc4)nn3)O2)c(=O)[nH]c1=O,inactive,inactive,10,97,0,
CCOC(=O)C(Cc1ccc(OCc2cn([C@]3(CO)O[C@@H](n4cc(C)c(=O)[nH]c4=O)C[C@@H]3O)nn2)cc1)NC(=O)OC(C)(C)C (stereo partly specified),inactive,inactive,0,97,0,
Cc1cn([C@H]2C[C@H](O)[C@](CO)(n3cc(-c4ccc(N(C)C)cc4)nn3)O2)c(=O)[nH]c1=O,inactive,inactive,21,100,12,1
Cc1cn([C@H]2C[C@H](O)[C@](CO)(n3cc(-c4ccc(-c5ccccc5)cc4)nn3)O2)c(=O)[nH]c1=O,inactive,inactive,1.7,80,31,
Cc1cn([C@H]2C[C@H](O)[C@](CO)(n3cc(CON4C(=O)c5ccccc5C4=O)nn3)O2)c(=O)[nH]c1=O,inactive,inactive,3.7,99,1,
Cc1cn([C@H]2C[C@H](O)[C@](CO)(n3cc(CSc4ccccc4)nn3)O2)c(=O)[nH]c1=O,inactive,inactive,3.3,99,20,
Cc1ccc(-c2cn([C@]3(CO)O[C@@H](n4cc(C)c(=O)[nH]c4=O)C[C@@H]3O)nn2)cc1,inactive,inactive,0,99,0,
COc1ccc(-c2cn([C@]3(CO)O[C@@H](n4cc(C)c(=O)[nH]c4=O)C[C@@H]3O)nn2)cc1,inactive,inactive,19,84,0,1
Cc1cn([C@H]2C[C@H](O)[C@](CO)(n3cc(-c4ccc(Oc5ccccc5)cc4)nn3)O2)c(=O)[nH]c1=O,inactive,inactive,48,95,1,1
Cc1cn([C@H]2C[C@H](O)[C@](CO)(n3cc(-c4cc5ccccc5c5ccccc45)nn3)O2)c(=O)[nH]c1=O,inactive,inactive,0,86,0,
Cc1cn([C@H]2C[C@H](O)[C@](CO)(n3cc(-c4ccc(F)cc4)nn3)O2)c(=O)[nH]c1=O,inactive,inactive,0,95,0,
Cc1cn([C@H]2C[C@H](O)[C@](CO)(n3cc(C4CCCCC4)nn3)O2)c(=O)[nH]c1=O,inactive,inactive,2.2,96,0,
Cc1cn([C@H]2C[C@H](O)[C@](CO)(n3cc(-c4ccc(Br)cc4)nn3)O2)c(=O)[nH]c1=O,inactive,inactive,18,100,60,4
Cc1cn([C@H]2C[C@H](O)[C@](CO)(n3cc(C(C)O)nn3)O2)c(=O)[nH]c1=O (stereo partly specified),inactive,inactive,0,100,8,
Cc1cn([C@H]2C[C@H](O)[C@](CO)(n3cc(C4CCCC4)nn3)O2)c(=O)[nH]c1=O,inactive,inactive,3.1,100,5,
CC(=O)Nc1ccc(-c2cn([C@]3(CO)O[C@@H](n4cc(C)c(=O)[nH]c4=O)C[C@@H]3O)nn2)cc1,inactive,inactive,54,98,0,3
Cc1cn([C@H]2C[C@H](O)[C@](CO)(n3cc(-c4ccsc4)nn3)O2)c(=O)[nH]c1=O,inactive,inactive,0,100,19,
COc1ccc2c(-c3cn([C@]4(CO)O[C@@H](n5cc(C)c(=O)[nH]c5=O)C[C@@H]4O)nn3)cccc2c1,inactive,inactive,5.3,95,0,
Cc1cn([C@H]2C[C@H](O)[C@](CO)(n3cc(C4CC4)nn3)O2)c(=O)[nH]c1=O,inactive,inactive,0,99,0,
Cc1cn([C@H]2C[C@H](O)[C@](CO)(n3cc(-c4ccccc4)nn3)O2)c(=O)[nH]c1=O,inactive,inactive,0,94,62,
COc1ccc2cc(-c3cn([C@]4(CO)O[C@@H](n5cc(C)c(=O)[nH]c5=O)C[C@@H]4O)nn3)ccc2c1,inactive,inactive,0,95,18,
Cc1cn([C@H]2C[C@H](O)[C@](CO)(n3cc(CO)nn3)O2)c(=O)[nH]c1=O,inactive,inactive,0,100,2,
Cc1cn([C@H]2C[C@H](O)[C@](CO)(n3cc(COc4ccc5ccccc5c4)nn3)O2)c(=O)[nH]c1=O,inactive,inactive,16,93,0,1
Cc1cn([C@H]2C[C@H](O)[C@](CO)(n3cc(C(O)c4ccccc4)nn3)O2)c(=O)[nH]c1=O (stereo partly specified),inactive,inactive,5,100,0,
